Results published in ChEMBL document CHEMBL1157539, “Thousands of chemical starting points for antimalarial lead identification” (Nature, 2010).

System: Plasmodium falciparum
Assay: GSK_TCMDC: Inhibition of Plasmodium falciparum 3D7 in whole erythrocytes, using parasite LDH activity as an index of growth.
Format: functional, organism-based
Conditions: Plasmodium falciparum, 3D7

Row | SMILES | XC50
1 | Cc1ccc(NCC(=O)Nc2ccc(F)c(Cl)c2)cc1S(=O)(=O)N1CCOCC1 | 57.6 nM
2 | O=C(Nc1cccnc1)c1cc(C(=O)Nc2cccnc2)cc([N+](=O)[O-])c1 | 1120 nM
3 | Nc1nc(N)c2c(ccc3c2ccn3CCCC(F)(F)F)n1 | 98 nM
4 | O=C(Nc1cccnc1)c1cc(-c2cccnc2)nc2ccc(Cl)cc12 | 1060 nM
5 | CCCCCN1CCCC1CNS(=O)(=O)c1ccc(C(=O)Nc2ccc(C(F)(F)F)cc2)cc1 (configuration not stated) | 838 nM
6 | Nc1nc(N)c2c(ccc3nn(S(=O)(=O)N4CCCC4)cc32)n1 | 96.6 nM
7 | Clc1cc(Cl)c2cc(CN[C@H]3CCC[C@@H]3CNc3nc4ccccc4[nH]3)[nH]c2c1 | 275 nM
8 | COCCNCc1cccc(-c2ccc(CN(C(=O)Nc3ccccc3)C3CCN(Cc4ccccc4)CC3)cc2)c1 | 773 nM
9 | O=C(Nc1cccc(-c2cccc(-c3nc4ccccc4[nH]3)c2)c1)Nc1ccc(F)c(F)c1F | 55.1 nM
10 | Cc1ccc(C)c(Cn2c(N3CCC(C(=O)NCc4cccs4)CC3)nc3ccccc32)c1 | 938 nM
11 | O=C(Nc1cccc(CN2CCCN(Cc3ccc(O)cc3)CC2)c1)c1cccc(F)c1 | 896 nM
12 | CC(CN(C)C)C(=O)Nc1cccc(-c2ccc(-c3nc4ccccc4[nH]3)cc2)c1 (configuration not stated) | 706 nM
13 | Nc1ncnc2cc(-c3cccc(NC(=O)Nc4ccccc4)c3)sc12 | 705 nM
14 | CCc1c(CCNCCCCCCNCc2ccc3c(c2CC)OCO3)ccc(OC)c1OC | 246 nM
15 | Fc1ccc2c(NN=CC=Cc3ccccc3)ccnc2c1 | 779 nM
16 | O=C(Nc1ccc2c(c1)CCNCC2)c1ccc(-c2ccc(Cl)cc2)cc1 | 814 nM
17 | COC(C(=O)OCCC1CCCN1C)(c1ccccc1)c1ccccc1 (configuration not stated) | 970 nM
18 | Cc1cccc(Cn2c(Cc3ccccc3)nnc2Sc2ccc([N+](=O)[O-])c(C#N)c2)c1 | 1140 nM
19 | CCCC[C@H](NC(=O)OC(C)(C)C)C(=O)Nc1ccc(Cc2ccc(NC(=O)[C@H](CCCC)NC(=O)OC(C)(C)C)cc2)cc1 | 733 nM
20 | CN(c1cc(NC(=O)c2cccs2)ccn1)C1CCN(Cc2cccc(C#N)c2)CC1 | 1260 nM
21 | CC1=CC(=O)[C@@H](O)[C@]2(C)[C@H]3[C@@]4(O)OC[C@@]35[C@@H](C[C@@H]12)OC(=O)C[C@H]5[C@@H](C)[C@H]4O [CHAPARRINONE] | 347 nM
22 | Cn1c(N)c(N=O)c(=O)[nH]c1=O | 176 nM
23 | CN(C)CCOc1ccnc2ccc(NC(=O)Cc3ccc(-c4ccncc4)c4ccccc34)cc12 | 277 nM
24 | COc1cccc(-c2ccc(C(=O)NC3CCN(Cc4ccc(C(C)(C)C)cc4)CC3)s2)c1 | 1600 nM
25 | CC(Cc1ccc(OCCCCOc2ccccc2)cc1)NCCC1CCCN1C (configuration not stated) | 39.7 nM

Row | SMILES | XC50
26 | CCN(CCC1(c2ccc(Cl)c(Cl)c2)CN(C(=O)c2cc(OC)c(OC)c(OC)c2)CCO1)C1CC2c3ccccc3CC21 (configuration not stated) | 426 nM
27 | O=C(Nc1n[nH]c2nc(-c3ccco3)c(Br)cc12)c1ccc(CN2CCCC2)cc1 | 791 nM
28 | O=C(Nc1cccc(-c2ccc(-c3nc4cc(C(F)(F)F)ccc4[nH]3)s2)c1)c1c[nH]cn1 | 1110 nM
29 | CC1(C)CCCN(c2ncc(-c3cccc(CNCc4ccccc4O)c3)cn2)C1 | 886 nM
30 | CN(C)CCNCc1ccc(-c2ccc(-c3nc4cc(F)ccc4[nH]3)cc2)cc1 | 474 nM
31 | Cc1ccccc1Oc1nc2ccccc2nc1SCC(=O)NC(C)C | 197 nM
32 | COc1cc2nc(N3CCC(CNC(=O)c4cc5ccccc5s4)CC3)nc(N)c2cc1OC | 293 nM
33 | O=C(NC1CCCCN(Cc2ccc3c(c2)OCCO3)C1)c1cc(-c2ccccc2F)cs1 (configuration not stated) | 1050 nM
34 | COc1cccc2cc(C(=O)N[C@@H](CC(C)C)C(=O)N[C@H](C=NNC(=O)OC(C)(C)C)Cc3ccccc3)oc12 | 304 nM
35 | O=S(=O)(NCCN1CCCC1)c1ccc(-c2ccc(CNC3Cc4ccccc4C3)cc2)cc1F | 999 nM
36 | CCC(C)c1ccc(NC(=O)c2ccc(S(=O)(=O)Nc3ccc(OC)c(N4CCN(CC5CC5)CC4)c3)cc2)cc1 (configuration not stated) | 703 nM
37 | Cc1ccc(F)c(OC2CCN(c3ccc(C(=O)NC4CC4)cn3)CC2)c1 | 823 nM
38 | C/C=C1\CN2CC[C@H]1C[C@H]2[C@H](O)c1ccnc2ccc(OC)cc12 | 318 nM
39 | COC(=O)C(NC(=O)NC1CCN(c2ccnc(Nc3ccc(F)cc3)n2)C1)c1ccccc1 (configuration not stated) | 1050 nM
40 | CCC(C)NCC(O)(c1ccc(Cl)cc1)c1ccc(Cl)cc1 (configuration not stated) | 843 nM
41 | COc1ccc(C=C2SC(=N)N(c3ccccc3OC)C2=O)cc1 | 300 nM
42 | O=C(NCCc1ccccc1)N(Cc1ccccc1-c1ccc(CNCCc2ccccc2)cc1)C1CCN(Cc2ccccc2)CC1 | 716 nM
43 | Cc1ccc(NC(=O)c2cc(Br)cc(N3CCC(N(C)C)CC3)c2)cc1F | 840 nM
44 | COc1ccc2c(NN=Cc3cccc(Cl)c3)ccnc2c1 | 716 nM
45 | CCN(CCCN1CCCCC1)c1cc(C)nc(Nc2ccc(C)c(Br)c2)n1 | 248 nM
46 | COc1ccc2c(=NN=Cc3cccc(F)c3)cc(C)[nH]c2c1 | 777 nM
47 | COC(=O)c1cccc(CNCc2cccc(-c3ccc(-c4nc5ccccc5[nH]4)s3)c2)c1 | 491 nM
48 | NC(=O)c1ccccc1Nc1nc(Nc2ccc(N3CCOCC3)cc2)ncc1[N+](=O)[O-] | 881 nM
49 | CCCN(CC)CCOC(=O)c1ccccc1 | 739 nM
50 | COc1ccc(CCCN2C(=O)C(c3ccccc3)(c3ccccc3)N=C2N)cc1 | 1050 nM

Row | SMILES | XC50
51 | Cc1cc(CNCCCCCCNCc2cccc([N+](=O)[O-])c2)ccc1O | 723 nM
52 | CN(CCO)Cc1ccc(-c2ccc(NS(=O)(=O)c3cccc4cccnc34)cc2)cc1 | 795 nM
53 | COCCNCc1ccc(-c2ccc(CN(C(=O)Nc3ccccc3)C3CCN(Cc4ccccc4)CC3)cc2)cc1 | 746 nM
54 | COc1cc2ncnc(NCCc3ccccc3Cl)c2cc1OC | 1120 nM
55 | N#CCCN1CCN(Cc2ccc(-c3ccc(-c4nc5cc(F)ccc5[nH]4)s3)cc2)CC1 | 659 nM
56 | N#Cc1ccc(C(=O)Nc2cccc(-c3ccc(CN4CCCC4)cc3)c2)cc1 | 723 nM
57 | CO/C(=C\C=C\c1cc2cc(Cl)c(Cl)cc2[nH]1)C(=O)NCCCN1CCN(c2cccc(OC)c2)CC1 | 845 nM
58 | CCOc1ccc(Cc2c(C)nc3nc(N)nc(N)c3c2C)cc1 | 1060 nM
59 | Cc1cccc2nc(-c3ccc(-c4cccc(NC(=O)CN5CCN(C)CC5)c4)s3)[nH]c12 | 826 nM
60 | Oc1cc(-c2nc(-c3ccccc3)[nH]c2-c2ccncc2)ccc1Cl | 814 nM
61 | COc1ccc(-c2ccc(NC(=O)c3ccc(C#N)cc3)cc2)cc1CN1CCN(C)CC1 | 721 nM
62 | Cc1ccc(NC(=O)c2ccc3ncccc3c2)cc1OC1CCN(Cc2ccsc2)CC1 | 930 nM
63 | COc1ccc2[nH]c(C(=O)Nc3ccc4[nH]c(-c5ccccc5)nc4c3)cc2c1 | 834 nM
64 | COC(=O)c1cc2cccc(NC[C@@H](C)NC[C@H](O)c3cccc(Cl)c3)c2[nH]1 | 631 nM
65 | Cc1cccc2nc(-c3cccc(-c4ccc(NC(=O)C5CCN(C)CC5)cc4)c3)[nH]c12 | 829 nM
66 | CC(C)CC(NC(=O)c1ccc(F)cc1)C(=O)N[C@H](/C=N/N1CCNC1=O)CC(C)C (some centres not stated) | 1030 nM
67 | O=C(Nc1cc(F)c(F)c(-c2cccnc2)c1)N1CCc2cc(Cl)c(Cl)cc21 | 844 nM
68 | COc1ccc2ncc(F)c(CCN3CC[C@H](NCc4cc(C#N)c5c(c4)OCCO5)[C@H](O)C3)c2c1 | 885 nM
69 | Cc1cc(N[C@@H](CC(C)C)C(=O)Nc2ccccc2)nc(NCCc2ccc(F)cc2)n1 | 1090 nM
70 | CC(C)c1sc(N2CCN(C)CC2)nc1C(=O)Nc1ccc(F)cc1C(F)(F)F | 190 nM
71 | Cc1noc(C)c1-c1ccc2c(Nc3ccccc3N3CCOCC3)c(C(=O)NCc3ccccc3)cnc2c1 | 1180 nM
72 | COc1ccc(Nc2nccc(NCC(O)c3ccc(C(F)(F)F)cc3)n2)cc1 (configuration not stated) | 545 nM
73 | CCCCCn1c(Sc2ccc(C#N)c([N+](=O)[O-])c2)nnc1-c1ccc(Cl)cc1 | 1080 nM
74 | CCCCN1CC[C@@H](CCC(O)c2cc(OCCC)nc3ccc(OC)cc23)[C@@H](CC)C1 (some centres not stated) | 356 nM
75 | Cc1cc(N2CCOCC2)nc(Nc2ccc(NC(=O)Nc3ccc(F)cc3)cc2)n1 | 495 nM

Row | SMILES | XC50
76 | COc1cccc2cc(C(=O)N[C@@H](CC(C)C)C(=O)N[C@H](C=NN(C)C(=O)OC(C)(C)C)Cc3ccccc3)oc12 | 262 nM
77 | Oc1ccc(CCNCCCCNCCc2ccc(Cl)cc2)cc1O | 843 nM
78 | COc1cccc(CNC[C@@H](O)[C@H](Cc2ccccc2)NC(=O)c2cc(NC(C)C)cc(N3CCCCS3(=O)=O)c2)c1 | 784 nM
79 | COc1ccc(CNCc2ccc(-c3cccc(-c4nc5cc(C(F)(F)F)ccc5[nH]4)c3)cc2)cc1 | 151 nM
80 | N#CCSc1nnc(-c2ccccc2)c2ccccc12 | 723 nM
81 | O=C(Nc1cccc(-c2cccc(-c3nc4ccccc4[nH]3)c2)c1)c1ccoc1 | 741 nM
82 | CCN1CCC(N(CCCCCCc2ccc(C(F)(F)F)cc2)C(=O)Cn2c(CCc3cccc(F)c3F)cc(=O)c3ccccc32)CC1 | 927 nM
83 | CCNc1cc(C(=O)N[C@@H](Cc2ccccc2)[C@H](O)CNC(C)(C)CCCC(C)C)cc(N2CCCCS2(=O)=O)c1 | 446 nM
84 | CCCCc1ccc(-c2c(N)nc(N)nc2CC)cc1 | 954 nM
85 | Cn1nc(-c2ccc(CN[C@@H]3CCc4ccc(O)cc43)cc2)c2cnc(NC3CCCC3)nc21 | 1120 nM
86 | COc1ccc(-c2ccc(NC(=O)c3ccc(F)cc3)cc2)cc1CN1CCCN(C)CC1 | 663 nM
87 | CN1CCN(Cc2cccc(-c3ccc4c(Nc5cc(O)c(Cl)cc5F)ccnc4c3)c2)CC1 | 770 nM
88 | CN1CCN(CCCN(Cc2csc(-c3ccc(CNCc4ccccc4)cc3)n2)S(=O)(=O)c2ccc(F)cc2)CC1 | 858 nM
89 | CN1CCCN(Cc2cccc(-c3cccc(NS(=O)(=O)c4cccc5cccnc45)c3)c2)CC1 | 764 nM
90 | COCCn1c(C)cc(C(=O)CN2C(=O)NC(C)(c3ccc(C(C)(C)C)cc3)C2=O)c1C (configuration not stated) | 475 nM
91 | O=C(Nc1ccc2c(c1)OCCO2)c1cc(-c2cccnc2)nc2ccc(Cl)cc12 | 714 nM
92 | Cc1cc(N(C)C)nc(Nc2ccc(NC(=O)C3CCCCC3)cc2)n1 | 1110 nM
93 | O=c1c2ccc(F)cc2sn1-c1ccc(Cl)cc1 | 1150 nM
94 | O=C(NC1CC1)c1ccc(Nc2nccc(-c3c(-c4cccc(NC(=O)c5c(F)cccc5F)c4)nn4ccccc34)n2)cc1 | 411 nM
95 | O=S(=O)(/C=C/c1ccccc1)N(Cc1ccc(-c2ccc(CNCCc3ccccn3)cc2)cc1)CC1CCCCN1 (configuration not stated) | 742 nM
96 | Cc1cccc2nc(-c3ccc(-c4ccc(CN5CCN(C6CCN(C)CC6)CC5)cc4)s3)[nH]c12 | 145 nM
97 | COc1ccc2nccc([C@@H](O)CN3CCC(NC(=O)c4cc5cccnc5[nH]4)CC3)c2c1 | 894 nM
